This is an account of results in paper PMC12186255, “Discovery and Characterization of Small Molecule Inhibitors Targeting Exonuclease 1 for Homologous Recombination-Deficient Cancer Therapy” (ACS Chemical Biology, 2025).

“Also recorded” adds a separate entry of the source.

The target in one assay is T1, EXO1 D225A (Homo sapiens, UniProt Q9UQ84, D225A).
T1 construct: The N-terminal domain of human EXO1 (hEXO1) (residues 1–345) was cloned into the pET28b vector; made in house; host or cells: E. coli BL21(DE3) and Rosetta 2(DE3)
T1 sequence (Q9UQ84 1-345 D225A): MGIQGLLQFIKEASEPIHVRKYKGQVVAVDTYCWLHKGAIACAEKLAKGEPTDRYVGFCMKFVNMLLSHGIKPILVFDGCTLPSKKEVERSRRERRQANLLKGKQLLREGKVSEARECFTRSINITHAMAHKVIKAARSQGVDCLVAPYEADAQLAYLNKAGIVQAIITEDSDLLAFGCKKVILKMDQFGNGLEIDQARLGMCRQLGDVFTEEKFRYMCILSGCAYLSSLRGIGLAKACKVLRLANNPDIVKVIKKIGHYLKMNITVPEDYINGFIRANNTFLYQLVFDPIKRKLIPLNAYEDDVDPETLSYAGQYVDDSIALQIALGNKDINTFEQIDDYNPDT
The assay can be described thus: In vitro exonuclease activity of mutant with inhibitors. It is filed as biochemical. Conditions: EXO1 25 nM, DNA substrate 250 nM; C200 0-5 μM. The protocol: Simultaneously, we tested the effect of each point mutation on the in vitro exonuclease activity. Most mutations in site 1 result in some loss of enzymatic activity compared to WT EXO1 (Figure S13; WT:Figure S13a), particularly K85A and D225A (Figure S13b,f). […] However, at concentrations of 20 and 40 μM, the mutants (K85A and R92A) behaved more like WT (Figure b).
In both panels a and b, DMSO without inhibitors was used as a control, and its relative binding activity was set equal to 1.0. The EXO1 enzyme concentration was 25 nM, and the DNA substrate concentration was 250 nM. The values shown are the mean ± S.D. of three independent experiments.
The N-terminal domain of human EXO1 (hEXO1) (residues 1–345) was cloned into the pET28b vector. The following mutations were introduced via site-directed mutagenesis based on the findings of molecular docking analysis: K85A, E89A, R92A, I125A, D225A, K292A, and K294A (oligonucleotide primers listed in Table S1) following the established protocol.

For another assay, the target named is T2, EXO1 (Homo sapiens, UniProt Q9UQ84).
T2 construct: made in house
T2 sequence (Q9UQ84 1-846): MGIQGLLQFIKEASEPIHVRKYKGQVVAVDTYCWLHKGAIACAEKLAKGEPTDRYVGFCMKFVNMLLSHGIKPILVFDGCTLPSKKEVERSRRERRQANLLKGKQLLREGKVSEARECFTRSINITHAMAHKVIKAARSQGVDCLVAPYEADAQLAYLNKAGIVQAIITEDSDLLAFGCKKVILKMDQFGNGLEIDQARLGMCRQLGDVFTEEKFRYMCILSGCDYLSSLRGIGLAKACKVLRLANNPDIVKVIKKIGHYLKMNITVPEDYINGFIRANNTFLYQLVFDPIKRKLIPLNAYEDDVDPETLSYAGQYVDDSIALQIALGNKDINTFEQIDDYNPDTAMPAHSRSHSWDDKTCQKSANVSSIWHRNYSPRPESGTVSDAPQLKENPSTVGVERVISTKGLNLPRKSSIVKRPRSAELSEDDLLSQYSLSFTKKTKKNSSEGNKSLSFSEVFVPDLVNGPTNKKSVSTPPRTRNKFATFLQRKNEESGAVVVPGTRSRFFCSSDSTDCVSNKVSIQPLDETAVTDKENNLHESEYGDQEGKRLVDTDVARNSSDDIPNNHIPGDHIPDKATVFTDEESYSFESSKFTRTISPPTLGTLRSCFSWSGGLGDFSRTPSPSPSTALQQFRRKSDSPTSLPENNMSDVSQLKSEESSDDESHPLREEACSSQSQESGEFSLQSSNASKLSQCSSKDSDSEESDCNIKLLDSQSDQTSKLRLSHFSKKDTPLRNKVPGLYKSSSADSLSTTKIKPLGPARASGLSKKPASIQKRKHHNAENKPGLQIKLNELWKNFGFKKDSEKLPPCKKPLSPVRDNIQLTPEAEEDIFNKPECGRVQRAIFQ
Briefly: Thermal shift assay. Conditions: maximum shift in Tm of EXO1 vs DMSO, increasing inhibitor concentrations. The class given is binding.

As to `COC(=O)c1nc(-c2ccc(OC)cc2)nc(O)c1O` [C200], the “inhibitory activity against EXO1 D225A mutant vs WT” value at EXO1 D225A is “partially lost its inhibitory effect; also recorded: abolished”. Besides, the ΔT m at EXO1 is roughly 1 °C.
